Biological target: hCRTH2 receptor (Homo sapiens (Human), UniProt Q9Y5Y4)
Assay: hCRTH2 receptor membranes radioligand (3H-PGD2) displacement assay
Assay type: binding
Conditions: 3H-PGD2 radioligand displacement, HEK293-hCRTH2 membranes
Experimental: Biological Assays: Preparation of hCRTH2 Receptor Membranes and Radioligand Displacement Assay:
First, recombinant HEK293-hCRTH2 cells were detached from culture plates into 5 ml buffer A/plate (Buffer A: 5 mM Tris, 1 mM MgCl2-6H2O pH=7.4) using a rubber policeman. Cells were then transferred into centrifugation tubes and centrifuged for 5 min at 400 g. The cell pellet was resuspended in the same buffer and tubes were frozen at −80° C. Cells were thawed and membrane fragments were generated by homogenization using a polytron homogenizer (30 seconds). The membrane fragments were then centrifuged at 3000 g for 20 minutes and resuspended in buffer C (Buffer C: 75 mM Tris, 25 mM MgCl2, 250 mM Saccharose pH 7.4). Aliquots of membrane fragments were stored at −20° C.
Binding assay was performed in a final assay volume of 250 μl. First, 25 μl of test compound, previously diluted in Binding-Buffer (Binding-Buffer: 50 mM Tris-Base, 100 mM NaCl, 1 mM EDTA, 0.1% BSA (protease free), 0.01% NaN3, 10 mM MnCl2, pH 7.0) was placed into each well. After addition of 75 μl Binding-Buffer, 50 μl of the radioligand ^3H-PGD2 (at 2.5 nM (220.000 dpm/well) from ANAWA ART0662) was added to each well. Binding assay was started by addition of 100 μl CRTH2 membrane fragments, reaching a final concentration of 20 μg/well. For non-specific binding, PGD2 was added to the reaction mixture to […] final concentration. This assay mix was incubated for 90 minutes at room temperature and then filtered through a GF/C filter 96-well plate which was pre-soaked for 3 hours in 0.5% polyethyleneimine (PEI). The filter-wells were washed three times with ice cold Binding-Buffer. Then, 40 μl of Microscint-40 (Packard) was added to each well and the retained radioactivity quantified in a Topcount (Packard).

Chain of hCRTH2 receptor (Q9Y5Y4 whole entry): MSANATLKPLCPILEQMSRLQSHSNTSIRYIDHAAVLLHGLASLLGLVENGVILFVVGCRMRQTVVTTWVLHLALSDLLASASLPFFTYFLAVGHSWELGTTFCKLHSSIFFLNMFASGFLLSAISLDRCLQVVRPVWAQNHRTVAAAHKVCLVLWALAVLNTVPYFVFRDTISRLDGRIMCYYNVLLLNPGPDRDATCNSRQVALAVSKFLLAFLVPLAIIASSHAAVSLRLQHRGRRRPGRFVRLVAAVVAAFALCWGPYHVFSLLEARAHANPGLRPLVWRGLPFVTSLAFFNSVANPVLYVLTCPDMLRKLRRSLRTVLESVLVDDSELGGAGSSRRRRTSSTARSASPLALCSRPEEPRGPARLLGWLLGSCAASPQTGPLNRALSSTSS

IC50 [nM]	Compound
5	CC(C)Oc1ccc(CC(=O)O)cc1-c1ccc(F)c2c1CN(C(=O)CC1CCOc3ccccc31)CC2 (racemic) [Example 290]
1.9	CC(C)Oc1ccc(CC(=O)O)cc1-c1ccc(F)c2c1CN(C(=O)CC1OCCc3ccccc31)CC2 (racemic) [Example 297]
1.2	CC(C)Oc1ccc(CC(=O)O)cc1-c1ccc(F)c2c1CN(C(=O)CC1COc3ccccc31)CC2 (racemic) [Example 298]
0.9	CCOc1cc(CC(=O)O)ccc1-c1ccc(F)c2c1CN(C(=O)CC1COc3ccccc3C1)CC2 (racemic) [Example 324]
291	COc1ccc(CC(=O)O)cc1-c1ccc(F)c2c1CN(C(=O)C(C)Cc1cccnc1)CC2 (racemic) [Example 343]
1.2	CC(C)Oc1cc(CC(=O)O)ccc1-c1ccc(F)c2c1CN(C(=O)CC1CCOc3ccccc31)CC2 (racemic) [Example 353]
22.9	COc1ccc(CC(=O)O)cc1-c1ccc(F)c2c1CN(C(=O)CC1OCc3ccccc31)CC2 (racemic) [Example 362]
430	COc1ccc(OC(C)C(=O)O)cc1-c1ccc(F)c2c1CN(C(=O)OCc1ccccc1)CC2 (racemic) [Example 414]
337	CCC(Oc1ccc(OC)c(-c2ccc(F)c3c2CN(C(=O)OCc2ccccc2)CC3)c1)C(=O)O (racemic) [Example 415]
11.3	CCOc1cc(C(C)C(=O)O)ccc1-c1ccc(F)c2c1CN(C(=O)OCc1ccccc1)CC2 (racemic) [Example 425]
25.6	Cc1ccc(CC(=O)O)cc1-c1ccc(F)c2c1CN(C(=O)OCc1ccccc1)CC2 [Example 7, 8-(5-Carboxymethyl-2-methyl-phenyl)-5-fluoro-3,4-dihydro-1H-isoquinoline-2-carboxylic acid benzyl ester]
7.31	O=C(O)Cc1ccc(C(F)(F)F)c(-c2ccc(F)c3c2CN(C(=O)OCc2ccccc2)CC3)c1 [Example 8, 8-(5-Carboxymethyl-2-trifluoromethyl-phenyl)-5-fluoro-3,4-dihydro-1H-isoquinoline-2-carboxylic acid benzyl ester]
12.8	O=C(O)Cc1ccc(Cl)c(-c2ccc(F)c3c2CN(C(=O)OCc2ccccc2)CC3)c1 [Example 9, 8-(5-Carboxymethyl-2-chloro-phenyl)-5-fluoro-3,4-dihydro-1H-isoquinoline-2-carboxylic acid benzyl ester]
10.1	O=C(O)Cc1ccc(F)c(-c2ccc(F)c3c2CN(C(=O)OCc2ccccc2)CC3)c1 [Example 10, 8-(5-Carboxymethyl-2-fluoro-phenyl)-5-fluoro-3,4-dihydro-1H-isoquinoline-2-carboxylic acid benzyl ester]
69.1	O=C(O)Cc1cc(-c2ccc(F)c3c2CN(C(=O)OCc2ccccc2)CC3)ccc1Cl [Example 11, 8-(3-Carboxymethyl-4-chloro-phenyl)-5-fluoro-3,4-dihydro-1H-isoquinoline-2-carboxylic acid benzyl ester]
21.8	O=C(O)Cc1cc(-c2ccc(F)c3c2CN(C(=O)OCc2ccccc2)CC3)ccc1F [Example 12, 8-(3-Carboxymethyl-4-fluoro-phenyl)-5-fluoro-3,4-dihydro-1H-isoquinoline-2-carboxylic acid benzyl ester]
72.3	COc1ccc(-c2ccc(F)c3c2CN(C(=O)OCc2ccccc2)CC3)cc1CC(=O)O [Example 13, 8-(3-Carboxymethyl-4-methoxy-phenyl)-5-fluoro-3,4-dihydro-1H-isoquinoline-2-carboxylic acid benzyl ester]
14.8	O=C(O)Cc1cc(F)cc(-c2ccc(F)c3c2CN(C(=O)OCc2ccccc2)CC3)c1 [Example 14, 8-(3-Carboxymethyl-5-fluoro-phenyl)-5-fluoro-3,4-dihydro-1H-isoquinoline-2-carboxylic acid benzyl ester]
18.5	COc1cc(CC(=O)O)cc(-c2ccc(F)c3c2CN(C(=O)OCc2ccccc2)CC3)c1 [Example 15, 8-(3-Carboxymethyl-5-methoxy-phenyl)-5-fluoro-3,4-dihydro-1H-isoquinoline-2-carboxylic acid benzyl ester]
25.2	O=C(O)Cc1cccc(-c2ccc(F)c3c2CN(C(=O)OCc2ccccc2)CC3)c1F [Example 16, 8-(3-Carboxymethyl-2-fluoro-phenyl)-5-fluoro-3,4-dihydro-1H-isoquinoline-2-carboxylic acid benzyl ester]
141	COc1ccc(CC(=O)O)cc1-c1ccc(F)c2c1CCN(C(=O)OCc1ccccc1)CC2 [Example 17, 6-(5-Carboxymethyl-2-methoxy-phenyl)-9-fluoro-1,2,4,5-tetrahydro-benzo[d]azepine-3-carboxylic acid benzyl ester]
165	COc1ccc(CC(=O)O)cc1-c1ccc(F)c2c1CN(C(=O)OCc1ccccc1)C2 [Example 18, 4-(5-Carboxymethyl-2-methoxy-phenyl)-7-fluoro-1,3-dihydro-isoindole-2-carboxylic acid benzyl ester]
20.2	O=C(O)Cc1cc(Cl)cc(-c2ccc(F)c3c2CN(C(=O)OCc2ccccc2)CC3)c1 [Example 19, 8-(3-Carboxymethyl-5-chloro-phenyl)-5-fluoro-3,4-dihydro-1H-isoquinoline-2-carboxylic acid benzyl ester]
16.3	CS(=O)(=O)c1ccc(CC(=O)O)cc1-c1ccc(F)c2c1CN(C(=O)OCc1ccccc1)CC2 [Example 20, 8-(5-Carboxymethyl-2-methanesulfonyl-phenyl)-5-fluoro-3,4-dihydro-1H-isoquinoline-2-carboxylic acid benzyl ester]
192	O=C(O)Cc1ccc(F)c(-c2cccc3c2CN(C(=O)OCc2ccccc2)CC3)c1 [Example 23, 8-(5-Carboxymethyl-2-fluoro-phenyl)-3,4-dihydro-1H-isoquinoline-2-carboxylic acid benzyl ester]

The next lines start with the compound.

Compound	IC50 [nM]
O=C(O)Cc1ccc(-c2ccc(F)c3c2CN(C(=O)CC2CCOc4ccccc42)CC3)c(OCC(F)(F)F)c1 (racemic) [Example 285]	3.5
CC(CC(=O)N1CCc2c(F)ccc(-c3ccc(CC(=O)O)cc3OCC(F)(F)F)c2C1)c1ccccn1 (racemic) [Example 288]	10
CC(C)Oc1ccc(CC(=O)O)cc1-c1ccc(F)c2c1CN(C(=O)CC(C)c1ccccn1)CC2 (racemic) [Example 293]	1.6
Cc1cccc(C(C)CC(=O)N2CCc3c(F)ccc(-c4cc(CC(=O)O)ccc4OC(C)C)c3C2)n1 (racemic) [Example 294]	3.2
O=C(O)Cc1ccc(OCC(F)(F)F)c(-c2ccc(F)c3c2CN(C(=O)CC2CCOc4ccccc42)CC3)c1 (racemic) [Example 299]	14.8
CC(CC(=O)N1CCc2c(F)ccc(-c3cc(CC(=O)O)ccc3OCC(F)(F)F)c2C1)c1ccccn1 (racemic) [Example 302]	8.1
O=C(O)Cc1ccc(OCC(F)(F)F)c(-c2ccc(F)c3c2CN(C(=O)CC2COCc4ccccc42)CC3)c1 (racemic) [Example 305]	3.4
O=C(O)Cc1ccc(OCC(F)(F)F)c(-c2ccc(F)c3c2CN(C(=O)CC2OCCc4ccccc42)CC3)c1 (racemic) [Example 306]	7.4
O=C(O)Cc1ccc(OCC(F)(F)F)c(-c2ccc(F)c3c2CN(C(=O)CC2COc4ccccc42)CC3)c1 (racemic) [Example 307]	3.4
CCOc1ccc(CC(=O)O)cc1-c1ccc(F)c2c1CN(C(=O)CC(CC)c1ccccn1)CC2 (racemic) [Example 308]	13.1
CCOc1cc(CC(=O)O)ccc1-c1ccc(F)c2c1CN(C(=O)CC(CC)c1ccccn1)CC2 (racemic) [Example 313]	7.8
CCOc1ccc(CC(=O)O)cc1-c1ccc(F)c2c1CN(C(=O)CC(c1ccccn1)C1CC1)CC2 (racemic) [Example 318]	114
CCOc1cc(CC(=O)O)ccc1-c1ccc(F)c2c1CN(C(=O)CC(C)c1cccc(C)n1)CC2 (racemic) [Example 320]	11.7
CCOc1cc(CC(=O)O)ccc1-c1ccc(F)c2c1CN(C(=O)CC1CC(C)(C)Oc3ccccc31)CC2 (racemic) [Example 323]	1.8
CCOc1cc(CC(=O)O)ccc1-c1ccc(F)c2c1CN(C(=O)C1CCc3cccc(OC)c3C1)CC2 (racemic) [Example 325]	1.8
CCOc1cc(CC(=O)O)ccc1-c1ccc(F)c2c1CN(C(=O)CC1(C)CCCc3ccccc31)CC2 (racemic) [Example 326]	2
CCOc1cc(CC(=O)O)ccc1-c1ccc(F)c2c1CN(C(=O)CC1CCOc3cc(F)ccc31)CC2 (racemic) [Example 327]	0.2
CCOc1ccc(CC(=O)O)cc1-c1ccc(F)c2c1CN(C(=O)C1CCc3cccc(OC)c3C1)CC2 (racemic) [Example 333]	22.7
CC(C)Oc1cc(CC(=O)O)ccc1-c1ccc(F)c2c1CN(C(=O)CC(C)c1ccccn1)CC2 (racemic) [Example 346]	3.7
CCOc1ccc(CC(=O)O)cc1-c1ccc(F)c2c1CN(C(=O)OCC(C)CC)CC2 (racemic) [Example 380]	4.2
